The source made the active and inactive calls. The rule behind the calls is not given here. Where a SMILES comes first, the peptide text is derived from it. Bridges are numbered along the chain shown (N, C = ends).

One experiment deals with Voltage-dependent N-type calcium channel subunit alpha-1B (Homo sapiens, UniProt Q00975). As to the kind of experiment: Inhibition of human Cav2.2 channel transfected in HEK293T cells co-expressed with human GABAB receptor assessed as inhibition of Cav2.2-mediated Ba2+ current at 100 nM measured for 3 to 5 days by whole-cell patch clamp assay. The format is cell-based. The note with it: time 3-5 day.
Voltage-dependent N-type calcium channel subunit alpha-1B, sequence (Q00975 whole entry, looked up): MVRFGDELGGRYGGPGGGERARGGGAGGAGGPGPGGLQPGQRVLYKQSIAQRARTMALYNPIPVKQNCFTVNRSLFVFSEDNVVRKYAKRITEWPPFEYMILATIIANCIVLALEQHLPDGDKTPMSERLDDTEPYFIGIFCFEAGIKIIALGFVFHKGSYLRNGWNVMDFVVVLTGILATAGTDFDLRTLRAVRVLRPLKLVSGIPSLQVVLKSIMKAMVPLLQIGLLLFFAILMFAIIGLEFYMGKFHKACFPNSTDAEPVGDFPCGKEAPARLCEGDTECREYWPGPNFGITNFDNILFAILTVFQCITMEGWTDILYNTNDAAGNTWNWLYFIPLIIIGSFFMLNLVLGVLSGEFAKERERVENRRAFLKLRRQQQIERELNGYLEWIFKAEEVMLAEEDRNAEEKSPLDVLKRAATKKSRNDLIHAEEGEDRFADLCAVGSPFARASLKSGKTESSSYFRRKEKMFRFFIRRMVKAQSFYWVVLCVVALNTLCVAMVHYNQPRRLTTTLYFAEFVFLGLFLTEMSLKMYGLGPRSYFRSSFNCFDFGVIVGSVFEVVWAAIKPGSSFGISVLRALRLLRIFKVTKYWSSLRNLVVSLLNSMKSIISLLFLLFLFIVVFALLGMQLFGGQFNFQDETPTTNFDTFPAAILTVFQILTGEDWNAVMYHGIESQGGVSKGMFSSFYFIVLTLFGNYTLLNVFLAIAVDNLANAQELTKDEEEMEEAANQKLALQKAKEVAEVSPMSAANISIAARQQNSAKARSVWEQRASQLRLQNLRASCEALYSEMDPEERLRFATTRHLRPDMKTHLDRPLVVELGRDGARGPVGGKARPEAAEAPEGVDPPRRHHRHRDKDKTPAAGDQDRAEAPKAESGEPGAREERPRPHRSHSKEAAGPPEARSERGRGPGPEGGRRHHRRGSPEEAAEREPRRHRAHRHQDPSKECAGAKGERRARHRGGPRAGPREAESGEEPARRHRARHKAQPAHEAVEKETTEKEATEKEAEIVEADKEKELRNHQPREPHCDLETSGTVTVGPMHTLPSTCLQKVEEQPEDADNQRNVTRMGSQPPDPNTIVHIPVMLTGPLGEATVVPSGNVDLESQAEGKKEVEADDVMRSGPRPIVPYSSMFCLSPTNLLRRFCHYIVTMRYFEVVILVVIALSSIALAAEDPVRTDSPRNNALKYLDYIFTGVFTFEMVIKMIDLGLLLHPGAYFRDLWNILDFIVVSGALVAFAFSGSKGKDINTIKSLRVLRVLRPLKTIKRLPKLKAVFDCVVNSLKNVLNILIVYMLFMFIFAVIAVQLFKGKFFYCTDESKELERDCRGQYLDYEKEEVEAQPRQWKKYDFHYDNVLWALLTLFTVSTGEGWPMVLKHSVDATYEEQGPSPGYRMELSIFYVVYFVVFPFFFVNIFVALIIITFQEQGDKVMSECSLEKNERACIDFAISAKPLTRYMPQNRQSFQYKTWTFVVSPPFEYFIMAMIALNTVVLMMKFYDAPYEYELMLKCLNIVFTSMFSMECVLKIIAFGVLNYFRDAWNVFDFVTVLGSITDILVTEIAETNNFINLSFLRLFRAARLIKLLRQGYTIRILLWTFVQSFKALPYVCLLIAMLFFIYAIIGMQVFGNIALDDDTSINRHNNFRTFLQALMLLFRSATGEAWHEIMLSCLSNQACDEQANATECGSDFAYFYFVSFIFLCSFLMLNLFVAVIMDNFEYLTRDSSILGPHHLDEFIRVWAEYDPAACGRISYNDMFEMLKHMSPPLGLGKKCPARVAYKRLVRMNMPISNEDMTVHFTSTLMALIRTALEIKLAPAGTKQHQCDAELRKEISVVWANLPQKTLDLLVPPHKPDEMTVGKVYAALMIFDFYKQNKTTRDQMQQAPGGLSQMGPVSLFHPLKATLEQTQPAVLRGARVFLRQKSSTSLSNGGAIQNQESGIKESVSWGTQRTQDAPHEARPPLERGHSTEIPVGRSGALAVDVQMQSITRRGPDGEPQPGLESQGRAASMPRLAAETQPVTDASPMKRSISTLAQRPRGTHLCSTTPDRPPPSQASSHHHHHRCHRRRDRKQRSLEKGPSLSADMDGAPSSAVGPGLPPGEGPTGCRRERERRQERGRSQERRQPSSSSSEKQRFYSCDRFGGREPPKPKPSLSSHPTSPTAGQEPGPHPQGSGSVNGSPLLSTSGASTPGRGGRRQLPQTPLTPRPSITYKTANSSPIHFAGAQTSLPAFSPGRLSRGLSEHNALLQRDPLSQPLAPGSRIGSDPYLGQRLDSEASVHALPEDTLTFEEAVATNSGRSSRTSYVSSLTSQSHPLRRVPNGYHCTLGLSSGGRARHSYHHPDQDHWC
Regarding H-GRARSPYDRRRRYRRITD-NH2, the inhibition is 10%.
On the same count and under the same terms, the result for H-GRYRSPADRRRRYRRITD-NH2 reads 60%; that for H-GRYRSPYARRRRYRRITD-NH2, 50%; that for H-GRYRSPYDARRRYRRITD-NH2, 50%.
Still for that read-out and setting: then H-GRYRSPYDRRRAYRRITD-NH2, with 10%; and H-GRYRSPYDRRRRYARITD-NH2, with 10%; and H-GRYRSPYDRRRRYRRATD-NH2, with 80%.
Still for that read-out and setting: then H-GRYRSPYDRRRRYRRITA-NH2, with 10%.

In the next experiment the target is Neuronal acetylcholine receptor; alpha9/alpha10 (Homo sapiens) (UniProt Q9UGM1+Q9GZZ6). Nature of the experiment: Antagonist activity at human wild type alpha9alpha10 nAChR expressed in acetylcholine-induced Xenopus laevis oocytes assessed as inhibition of acetylcholine-induced current at 30 nM by two electrode voltage-clamp assay relative to control. The format is cell-based. The note with it: Oocyte. Background: Two-electrode voltage clamp is typically applied to oocytes expressing channels or transporters.
`CC[C@@H](C)[C@@H](NC(=O)[C@@H](CCCNC(=N)N)NC(=O)[C@@H](CCCNC(=N)N)NC(=O)[C@@H](Cc1ccc(O)cc1)NC(=O)[C@@H](CCCNC(=N)N)NC(=O)[C@@H](CCCNC(=N)N)NC(=O)[C@@H](CCCNC(=N)N)NC(=O)[C@@H](CCCNC(=N)N)NC(=O)[C@@H](CC(=O)O)NC(=O)[C@@H](Cc1ccc(O)cc1)NC(=O)[C@H]1CCCN1C(=O)[C@@H](CO)NC(=O)[C@@H](CCCNC(=N)N)NC(=O)[C@@H](Cc1ccc(O)cc1)NC(=O)[C@@H](CCCNC(=N)N)NC(=O)CN)C(=O)N[C@@H](C(=O)N[C@H](CC(=O)O)C(N)=O)[C@H](C)O`: the inhibition came out at 25%.
Regarding `N=C(N)NCCC[C@@H]1NC(=O)[C@H](CCCNC(=N)N)NC(=O)[C@H](CCCNC(=N)N)NC(=O)[C@H](CCCNC(=N)N)NC(=O)[C@H](CC(=O)O)NC(=O)[C@H](Cc2ccc(O)cc2)NC(=O)[C@@H]2CCCN2C(=O)[C@H](CO)NC(=O)[C@H](CCCNC(=N)N)NC(=O)[C@@H](N)CSSC[C@@H](C(N)=O)NC(=O)[C@H](Cc2ccc(O)cc2)NC1=O` (H-CRSPYDRRRRYC-NH2; disulfide 1-12), the inhibition turned out to be 25%.
As to `CC[C@H](C)[C@H](NC(=O)[C@H](CCCNC(=N)N)NC(=O)[C@H](CCCNC(=N)N)NC(=O)[C@@H]1CSSC[C@H](N)C(=O)N[C@@H](CCCNC(=N)N)C(=O)N[C@@H](CO)C(=O)N2CCC[C@H]2C(=O)N[C@@H](Cc2ccc(O)cc2)C(=O)N[C@@H](CC(=O)O)C(=O)N[C@@H](CCCNC(=N)N)C(=O)N[C@@H](CCCNC(=N)N)C(=O)N[C@@H](CCCNC(=N)N)C(=O)N[C@@H](CCCNC(=N)N)C(=O)N[C@@H](Cc2ccc(O)cc2)C(=O)N1)C(=O)N[C@H](C(=O)N[C@@H](CC(=O)O)C(N)=O)[C@@H](C)O` (H-CRSPYDRRRRYCRRITD-NH2; disulfide 1-12), the inhibition stood at 25%.
Same read-out and setting: the result for `CC[C@H](C)[C@H](NC(=O)[C@H](CCCNC(=N)N)NC(=O)[C@H](CCCNC(=N)N)NC(=O)[C@@H]1CSSC[C@H](NC(=O)[C@H](Cc2ccc(O)cc2)NC(=O)[C@H](CCCNC(=N)N)NC(=O)CN)C(=O)N[C@@H](CCCNC(=N)N)C(=O)N[C@@H](CO)C(=O)N2CCC[C@H]2C(=O)N[C@@H](Cc2ccc(O)cc2)C(=O)N[C@@H](CC(=O)O)C(=O)N[C@@H](CCCNC(=N)N)C(=O)N[C@@H](CCCNC(=N)N)C(=O)N[C@@H](CCCNC(=N)N)C(=O)N[C@@H](CCCNC(=N)N)C(=O)N[C@@H](Cc2ccc(O)cc2)C(=O)N1)C(=O)N[C@H](C(=O)N[C@@H](CC(=O)O)C(N)=O)[C@@H](C)O` (H-GRYCRSPYDRRRRYCRRITD-NH2; disulfide 4-15) reads 25%; that for `CC[C@H](C)[C@H](NC(=O)[C@H](CCCNC(=N)N)NC(=O)[C@H](CCCNC(=N)N)NC(=O)[C@@H]1CSSC[C@H](NC(=O)[C@H](Cc2ccc(O)cc2)NC(=O)[C@@H](N)CCCNC(=N)N)C(=O)N[C@@H](CCCNC(=N)N)C(=O)N[C@@H](CO)C(=O)N2CCC[C@H]2C(=O)N[C@@H](Cc2ccc(O)cc2)C(=O)N[C@@H](CC(=O)O)C(=O)N[C@@H](CCCNC(=N)N)C(=O)N[C@@H](CCCNC(=N)N)C(=O)N[C@@H](CCCNC(=N)N)C(=O)N[C@@H](CCCNC(=N)N)C(=O)N[C@@H](Cc2ccc(O)cc2)C(=O)N1)C(=O)N[C@H](C(=O)N[C@@H](CC(=O)O)C(N)=O)[C@@H](C)O` (H-RYCRSPYDRRRRYCRRITD-NH2; disulfide 3-14), 25%.
The same measure, in the same setting: then `CC[C@H](C)[C@H](NC(=O)[C@H](CCCNC(=N)N)NC(=O)[C@H](CCCNC(=N)N)NC(=O)[C@@H]1CSSC[C@H](NC(=O)[C@@H](N)Cc2ccc(O)cc2)C(=O)N[C@@H](CCCNC(=N)N)C(=O)N[C@@H](CO)C(=O)N2CCC[C@H]2C(=O)N[C@@H](Cc2ccc(O)cc2)C(=O)N[C@@H](CC(=O)O)C(=O)N[C@@H](CCCNC(=N)N)C(=O)N[C@@H](CCCNC(=N)N)C(=O)N[C@@H](CCCNC(=N)N)C(=O)N[C@@H](CCCNC(=N)N)C(=O)N[C@@H](Cc2ccc(O)cc2)C(=O)N1)C(=O)N[C@H](C(=O)N[C@@H](CC(=O)O)C(N)=O)[C@@H](C)O` (H-YCRSPYDRRRRYCRRITD-NH2; disulfide 2-13), with 25%.
On the same count and under the same terms, the result for `CC[C@H](C)[C@@H]1NC(=O)[C@H](CCCNC(=N)N)NC(=O)[C@H](CCCNC(=N)N)NC(=O)[C@@H]2CSSC[C@H](NC(=O)[C@H](Cc3ccc(O)cc3)NC(=O)[C@H](CCCNC(=N)N)NC(=O)CNC(=O)[C@H](CC(=O)O)NC(=O)[C@H]([C@@H](C)O)NC1=O)C(=O)N[C@@H](CCCNC(=N)N)C(=O)N[C@@H](CO)C(=O)N1CCC[C@H]1C(=O)N[C@@H](Cc1ccc(O)cc1)C(=O)N[C@@H](CC(=O)O)C(=O)N[C@@H](CCCNC(=N)N)C(=O)N[C@@H](CCCNC(=N)N)C(=O)N[C@@H](CCCNC(=N)N)C(=O)N[C@@H](CCCNC(=N)N)C(=O)N[C@@H](Cc1ccc(O)cc1)C(=O)N2` (cyclo(CRRITDGRYCRSPYDRRRRY); disulfide 1-10) reads 25%; that for H-ARYRSPYDRRRRYRRITD-NH2, 20%.
Regarding H-DRYRSPYDRRRRYRRITD-NH2, the inhibition is 0%.
The same measure, in the same setting: then H-GAYRSPYDRRRRYRRITD-NH2, with 20%; and H-GDYRSPYDRRRRYRRITD-NH2, with 0%; and H-GRARSPYDRRRRYRRITD-NH2, with 20%.
For H-GRRRSPYDRRRRYRRITD-NH2, the inhibition came to 10%.
Still for that read-out and setting: the result for H-GRYAAPYDRRRRYRRITD-NH2 reads 20%; that for H-GRYASPYDRRRRYRRITD-NH2, 20%.
Still for that read-out and setting: the result for H-GRYDSPYDRRRRYRRITD-NH2 reads 0%; that for H-GRYRDPYDRRRRYRRITD-NH2, 0%.
Same read-out and setting: the result for H-GRYRSAYDRRRRYRRITD-NH2 reads 20%.
In the case of H-GRYRSDYDRRRRYRRITD-NH2, the inhibition was found to be 0%.
Same read-out and setting: then H-GRYRSPADRRRRYRRITD-NH2, with 20%; and H-GRYRSPRDRRRRYRRITD-NH2, with 10%.
On the same count and under the same terms, then H-GRYRSPYARRRRYRRITD-NH2, with 20%.
The same measure, in the same setting: then H-GRYRSPYDARRRYRRITD-NH2, with 20%; and H-GRYRSPYDDRRRYRRITD-NH2, with 0%.
H-GRYRSPYDRARRYRRITD-NH2: the inhibition was found to be 20%.
Same read-out and setting: the result for H-GRYRSPYDRDRRYRRITD-NH2 reads 0%; that for H-GRYRSPYDRRDRYRRITD-NH2, 0%.
For the molecule H-GRYRSPYDRRRDYRRITD-NH2, the inhibition was 0%.
On to H-GRYRSPYDRRRRDRRITD-NH2, for which the inhibition was 0%.
Still for that read-out and setting: then H-GRYRSPYDRRRRRRRITD-NH2, with “inactive”.
The same measure, in the same setting: the result for H-GRYRSPYDRRRRYDRITD-NH2 reads 0%; that for H-GRYRSPYDRRRRYRAITD-NH2, 20%.
On the same count and under the same terms, the result for H-GRYRSPYDRRRRYRDDTD-NH2 reads 0%; that for H-GRYRSPYDRRRRYRDIDD-NH2, 0%; that for H-GRYRSPYDRRRRYRDITD-NH2, 0%.
For H-GRYRSPYDRRRRYRRATD-NH2, the inhibition stood at 20%.
Consider H-GRYRSPYDRRRRYRRIAD-NH2, for which the inhibition was determined as 20%.
Still for that read-out and setting: then H-GRYRSPYDRRRRYRRIRD-NH2, with 10%; and H-GRYRSPYDRRRRYRRITA-NH2, with 20%; and H-GRYRSPYDRRRRYRRITR-NH2, with “inactive”.
Still for that read-out and setting: the result for H-GRYRSPYRRRRRYRRITD-NH2 reads 10%; that for H-GRYRSRYDRRRRYRRITD-NH2, 10%; that for H-RRYRSPYDRRRRYRRITD-NH2, 10%.

The same experiment, now with this note: Oocyte, filed as antagonist.
Take H-GRDRSPYDRRRRYRRITD-NH2: the inhibition entry is “Active”.
Still for that read-out and setting: then H-GRYRRPYDRRRRYRRITD-NH2, with over 80%; and H-GRYRSPDDRRRRYRRITD-NH2, with “Active”; and H-GRYRSPYDRRARYRRITD-NH2, with “Active”.
Same read-out and setting: the result for H-GRYRSPYDRRRAYRRITD-NH2 reads “Active”; that for H-GRYRSPYDRRRRARRITD-NH2, “Active”.
On the same count and under the same terms, the result for H-GRYRSPYDRRRRYARITD-NH2 reads “Active”.
For H-GRYRSPYDRRRRYRRRTD-NH2, the inhibition is over 80%.

What is called inhibition is the change of the read-out against control, counted positive when it falls.
